Results taken from ChEMBL document CHEMBL3044886, “Chemoselective synthesis, antiproliferative activities, and SAR study of 1H-pyrazol-5-yl-N,N-dimethylformamidines and pyrazolyl-2-azadienes” (2012).

Assays:
Assay type in all cases: functional
[1] = Growth inhibition of Homo sapiens (human) NPC-TW01 cells after 72 hr by MTT assay; details: NPC-TW01, 72 h
[2] = tested on: NCI-H226; assay: Growth inhibition of Homo sapiens (human) NCI-H226 cells after 72 hr by MTT assay; details: NCI-H226, 72 h
[3] = tested on: Jurkat; assay: Growth inhibition of Homo sapiens (human) Jurkat cells after 72 hr by MTT assay

Row | GI50 [2] [µM] | GI50 [3] [µM] | Compound | GI50 [1] [µM]
1 | 31.4 | – | CN(C)/C=N/c1c(C=O)c(-c2ccccc2)nn1-c1ccccc1 | 9.3
2 | 62.9 | 38.9 | CN(C)/C=N/c1c(C=O)c(-c2ccc(Cl)cc2)nn1-c1ccc(Br)cc1 | > 100
3 | > 100 | > 100 | CN(C)/C=N/c1cc(-c2ccccc2)nn1-c1ccccc1 | > 100
4 | 80.9 | > 100 | Cc1ccc(-c2cc(/N=C/N(C)C)n(-c3cccc(Cl)c3)n2)cc1 | > 100
5 | 75.6 | 74.5 | CN(C)/C=N/c1cc(-c2ccc(Cl)cc2)nn1-c1cccc(Cl)c1 | 92.7
6 | 73.9 | > 100 | Cc1ccc(-c2cc(/N=C/N(C)C)n(-c3ccc(Br)cc3)n2)cc1 | > 100
7 | 59.8 | 84.9 | CN(C)/C=N/c1cc(-c2ccc(Cl)cc2)nn1-c1ccc(Br)cc1 | 60.7
8 | > 100 | 87.3 | Nc1c(C=O)c(-c2ccccc2)nn1-c1ccccc1 | > 100
9 | 71.8 | 86.3 | Cc1ccc(-c2nn(-c3cccc(Cl)c3)c(N)c2C=O)cc1 | > 100
10 | 79.7 | 78.9 | Nc1c(C=O)c(-c2ccc(Cl)cc2)nn1-c1cccc(Cl)c1 | > 100
11 | 8.5 | 34.4 | Cc1ccc(-c2nn(-c3ccc(Br)cc3)c(N)c2C=O)cc1 | 28.2
12 | 49.1 | 90.7 | Nc1c(C=O)c(-c2ccc(Cl)cc2)nn1-c1ccc(Br)cc1 | 59.7
13 | 72.2 | 83 | Nc1cc(-c2ccccc2)nn1-c1ccccc1 | > 100
14 | 63.5 | 56.6 | Cc1ccc(-c2cc(N)n(-c3cccc(Cl)c3)n2)cc1 | > 100
15 | 75.1 | > 100 | Nc1cc(-c2ccc(Cl)cc2)nn1-c1cccc(Cl)c1 | > 100
16 | 54.3 | 45 | Cc1ccc(-c2cc(N)n(-c3ccc(Br)cc3)n2)cc1 | 80.2
17 | 58.7 | 61.3 | Nc1cc(-c2ccc(Cl)cc2)nn1-c1ccc(Br)cc1 | 64.4
18 | 8.9 | 7.8 | Cc1ccc(-c2nn(-c3cccc(Cl)c3)c(/N=C/N(C)C)c2C=O)cc1 | 7.2
19 | 9.2 | 7.7 | CN(C)/C=N/c1c(C=O)c(-c2ccc(Cl)cc2)nn1-c1cccc(Cl)c1 | 7.4
20 | 8.2 | 6.7 | Cc1ccc(-c2nn(-c3ccc(Br)cc3)c(/N=C/N(C)C)c2C=O)cc1 | 6
